These results are taken from patent US9949948B2, “Artemisinin and its derivatives for use in the treatment of trauma haemorrhage and associated conditions” (Queen Mary University of London, priority 2011, dated 2018).

The test relates to rats subjected to regional myocardial ischaemia and reperfusion. The experiment in a line: Regional myocardial ischaemia and reperfusion, artesunate and dihydroartemisinin. It is filed as in vivo, Wistar rats. Here is the method:
Rats were anaesthetised with thiopentone sodium (Intraval® 120 mg/kg i.p.). Anaesthesia was maintained by supplementary injections of thiopentone sodium as required. The trachea was cannulated and the animals were ventilated with a Harvard ventilator (inspiratory oxygen concentration: 30%; 70 strokes/min, tidal volume: 8-10 ml/kg). Body temperature was maintained at 37±1° C. with the aid of a rectal probe thermometer attached to a homeothermic blanket unit (Harvard Apparatus Ltd., Edenbridge, Kent. U.K.). […] The right jugular vein was then cannulated for the administration of drugs and saline. A para-sternal thoracotomy was then performed, using an Electrosurgery device to cauterize the intercostals arteries before cutting through three ribs. The chest was retracted and pericardium dissected from the heart. The left anterior descending (LAD) coronary artery was isolated and a snare occluder was placed around the LAD. The retractor was then removed and the animal was allowed to stabilise for 15 min.
The occluder was tightened at time 0. After 25 min of LAD-occlusion, the occluder was released to allow reperfusion of the previously ischemic myocardium (2 h). Haemodynamic parameters were continuously monitored. Baseline readings were taken prior to treatment, and, myocardial ischaemia reperfusion (IR) injury. The pressure rate index (PRI), a relative indicator of myocardial oxygen consumption was calculated as a product of the MAP (mmHg) and HR (beats/minute-bpm) and expressed in mm Hg bpm×10^−3.
At the end of the 2 h reperfusion period, the LAD was re-occluded and 1 ml of Evans Blue dye (2% w/v) was injected into the animal, via the jugular vein. The Evans Blue dye stains the tissue it can circulate through, therefore the non-perfused vascular (occluded) tissue remains un-coloured. Each animal was killed with an over-dose of anaesthetic, the heart excised, and excess dye washed off. […] The ischaemic and non-ischaemic tissue was weighed, and the AAR expressed as a percentage of the left ventricle. The tissue from the AAR was cut into small pieces and incubated with p-nitroblue tetrazolium (NBT, 0.5 mg/ml) for 30 min at 37° C. NBT is a reducing agent that reacts with dehydrogenases present in viable (non-infarcted) tissue to produce a dark blue formazan. Infarcted tissue (non-viable) will not have dehydrogenase activity and will therefore fail to stain. The stained tissue was separated from the infarcted tissue, weighed, and the infarct size expressed as a percentage of the AAR.
Sham-operated rats were subjected to surgical procedure without myocardial ischaemia and reperfusion.

The mark [1] stands for this setting: bolus 0.1 mg/kg upon reperfusion, P>0.05 vs Control.

Structures are written as SMILES.

As to `C[C@@H]1CC[C@H]2[C@@H](C)C(O)O[C@H]3O[C@@]4(C)CC[C@@H]1[C@]32OO4` (stereo partly drawn) [dihydroartemisinin, (3R,5aS,6R,8aS,9R,12S,12aR)-decahydro-3,6,9-trimethyl-3,12-epoxy-12H-pyrano[4,3-j]-1,2-benzodioxepin-10-ol], the “infarct size (percentage of the AAR)” value (0.1 mg/kg i.v. bolus upon reperfusion, from 59.8±3.2, P<0.05) is 46.5±1.3%. The molecule further yielded an Infarct size reduction (0.1 mg/kg i.v. upon reperfusion, vs control) of 40%. In addition, the area at risk result (0.1 mg/kg, compared to vehicle treated rats) was “no significant effect”. Besides, under setting [1], the “fall in mean arterial blood pressure caused by myocardial ischaemia and reperfusion” value is recorded as “did not attenuate”; the heart rate result was “did not have a significant effect”.
